Laboratory results from patent US20230255906A1, “Targeting Serpin B9 in Cancer” (The Brigham and Women`s Hospital, Inc., priority 2020, published 2023).

tested on: B16 melanoma cells; assay: Caspase-3 activity assay (EnzChek Caspase-3 Assay Kit), caspase-3 induction in tumor cells; assay type: cell-based, mouse; conditions: not given; note: test concentration or dose not given here
Summary of the method: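 B16 melanoma cells exposed to compounds for 24 h, lysed on ice 30 min, and lysate incubated with Z-DEVD-R110 substrate about 30 min at room temperature. Fluorescence read at ~496/520 nm against untreated-cell and no-enzyme controls; caspase-3 induction serves as surrogate for GrB activity from Sb9 inhibition.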

Row | SMILES | Ratio of caspase-3 activity to Formula (III)
1 | O=C(NC1CCC1)c1ccc2oc(-c3ccc(C(F)(F)F)cc3)nc2c1 [N-cyclobutyl-2-[4-(trifluoromethyl)phenyl]-1,3-benzoxazole-5-carboxamide] | 1.28
2 | CCN(CCn1cccn1)C(=O)c1ccc2nc(-c3cccc(OC)c3)oc2c1 [N-ethyl-2-(3-methoxyphenyl)-N-[2-(1H-pyrazol-1-yl)ethyl]-1,3-benzoxazole-6-carboxamide] | 0.1363
3 | CCN(CCO)C(=O)c1ccc2oc(-c3ccc(C(F)(F)F)cc3)nc2c1 [N-ethyl-N-(2-hydroxyethyl)-2-[4-(trifluoromethyl)phenyl]-1,3-benzoxazole-5-carboxamide] | 0.1437
4 | CC(C)NC(=O)c1ccc2oc(-c3ccc(C(F)(F)F)cc3)nc2c1 [N-isopropyl-2-[4-(trifluoromethyl)phenyl]-1,3-benzoxazole-5-carboxamide] | 0.2847
5 | CN(Cc1ccn[nH]1)C(=O)c1ccc2oc(-c3ccc(C(F)(F)F)cc3)nc2c1 [N-methyl-N-(1H-pyrazol-5-ylmethyl)-2-[4-(trifluoromethyl)phenyl]-1,3-benzoxazole-5-carboxamide] | 0.1414
6 | CN(Cc1cccnc1)C(=O)c1ccc2oc(-c3ccc(C(F)(F)F)cc3)nc2c1 [N-methyl-N-(3-pyridinylmethyl)-2-[4-(trifluoromethyl)phenyl]-1,3-benzoxazole-5-carboxamide] | 0.1669
7 | CN(Cc1ccncn1)C(=O)c1ccc2oc(-c3ccc(C(F)(F)F)cc3)nc2c1 [N-methyl-N-(4-pyrimidinylmethyl)-2-[4-(trifluoromethyl)phenyl]-1,3-benzoxazole-5-carboxamide] | 0.1443
8 | CN(CCN1CCOCC1)C(=O)c1ccc2oc(-c3ccc(C(F)(F)F)cc3)nc2c1 [N-methyl-N-[2-(4-morpholinyl)ethyl]-2-[4-(trifluoromethyl)phenyl]-1,3-benzoxazole-5-carboxamide] | 0.1327
9 | Cc1c[nH]c(CN(C)C(=O)c2ccc3oc(-c4ccc(C(F)(F)F)cc4)nc3c2)n1 [N-methyl-N-[(4-methyl-1H-imidazol-2-yl)methyl]-2-[4-(trifluoromethyl)phenyl]-1,3-benzoxazole-5-carboxamide] | 0.1327
10 | O=C(c1ccc2oc(-c3ccc(C(F)(F)F)cc3)nc2c1)N1CCC[C@H]1CO [[(2S)-1-({2-[4-(trifluoromethyl)phenyl]-1,3-benzoxazol-5-yl}carbonyl)-2-pyrrolidinyl]methanol] | 0.1353
11 | O=C(c1ccc2nc(-c3ccccc3)oc2c1)N1C[C@@H](F)C[C@H]1CO [[(2S,4S)-4-fluoro-1-(2-phenyl-1,3-benzoxazole-6-carbonyl)pyrrolidin-2-yl]methanol] | 0.09723
12 | CCOC(=O)C1CCCN(C(=O)c2ccc3nc(-c4cccc(OC)c4)oc3c2)C1 (stereo not shown) [ethyl 1-{[2-(3-methoxyphenyl)-1,3-benzoxazol-6-yl]carbonyl}-3-piperidinecarboxylate] | 0.1363
13 | CCOC(=O)CC1CCCCN1C(=O)c1ccc2nc(-c3cccc(OC)c3)oc2c1 (stereo not shown) [ethyl (1-{[2-(3-methoxyphenyl)-1,3-benzoxazol-6-yl]carbonyl}-2-piperidinyl)acetate] | 0.1479
14 | CCOC(=O)CCNC(=O)c1ccc2oc(-c3cccc(F)c3)nc2c1 [ethyl N-{[2-(3-fluorophenyl)-1,3-benzoxazol-5-yl]carbonyl}-beta-alaninate] | 0.09329
15 | CCOC(=O)CCNC(=O)c1ccc2nc(-c3cccc(OC)c3)oc2c1 [ethyl N-{[2-(3-methoxyphenyl)-1,3-benzoxazol-6-yl]carbonyl}-beta-alaninate] | 0.1049
16 | COC(=O)C1CCN(C(=O)c2ccc3nc(-c4cccc(OC)c4)oc3c2)CC1 [methyl 1-{[2-(3-methoxyphenyl)-1,3-benzoxazol-6-yl]carbonyl}-4-piperidinecarboxylate] | 0.1376
17 | COC(=O)CCCNC(=O)c1ccc2nc(-c3cccc(OC)c3)oc2c1 [methyl 4-({[2-(3-methoxyphenyl)-1,3-benzoxazol-6-yl]carbonyl}amino)butanoate] | 0.3858

same assay, conditions: relative to compound of Formula (III)

Row | SMILES | Caspase-3 induction, Normalized to Formula (III) (%)
18 | Cc1nc2c(C(=O)NCc3ccccc3)cccc2o1 [N-benzyl-2-methyl-1,3-benzoxazole-4-carboxamide] | −46.2057%
19 | O=C(NCc1ccccc1)c1ccc2nc(S)oc2c1 [N-benzyl-2-sulfanyl-1,3-benzoxazole-6-carboxamide] | −17.7286%
20 | Cc1cc(O)c(O)cc1C(=O)NCc1ccccc1 [N-benzyl-4,5-dihydroxy-2-methylbenzamide] | −43.6184%
21 | CCOc1ccc(C(=O)NCc2ccccc2)cc1O [N-benzyl-4-ethoxy-3-hydroxybenzamide] | 19.0685%
22 | COc1cc(C(=O)NCc2ccccc2)cc(OC)c1O [N-benzyl-4-hydroxy-3,5-dimethoxybenzamide] | −17.7065%
23 | O=C(NCc1ccccc1)c1cc2c(cc1O)OCO2 [N-benzyl-6-hydroxy-2H-1,3-benzodioxole-5-carboxamide] | −9.366%
24 | CN(C)c1nc2c(C(=O)NC3CCCC3)cccc2o1 [N-cyclopentyl-2-(dimethylamino)-1,3-benzoxazole-4-carboxamide] | −20.9929%
25 | CN(C)c1nc2cccc(C(=O)NC3CCCC3)c2o1 [N-cyclopentyl-2-(dimethylamino)-1,3-benzoxazole-7-carboxamide] | −47.699%
26 | O=C(NC1CCCC1)c1ccc2nc(C3CC3)oc2c1 [N-cyclopentyl-2-cyclopropyl-1,3-benzoxazole-6-carboxamide] | −21.5068%
27 | Cc1nc2c(C(=O)NC3CCCC3)cccc2o1 [N-cyclopentyl-2-methyl-1,3-benzoxazole-4-carboxamide] | −30.2879%
28 | O=C(NC1CCCC1)c1ccc2nc(S)oc2c1 [N-cyclopentyl-2-sulfanyl-1,3-benzoxazole-6-carboxamide] | −81.3264%
29 | Cc1cc(O)c(O)cc1C(=O)NC1CCCC1 [N-cyclopentyl-4,5-dihydroxy-2-methylbenzamide] | −66.5183%
30 | CCOc1ccc(C(=O)NC2CCCC2)cc1O [N-cyclopentyl-4-ethoxy-3-hydroxybenzamide] | 4.1370%
31 | COc1cc(C(=O)NC2CCCC2)cc(OC)c1O [N-cyclopentyl-4-hydroxy-3,5-dimethoxybenzamide] | −24.5783%
32 | O=C(NC1CCCC1)c1cc2c(cc1O)OCO2 [N-cyclopentyl-6-hydroxy-2H-1,3-benzodioxole-5-carboxamide] | −61.6444%
33 | CCN(C)C(=O)c1cc(O)c(O)cc1C [N-ethyl-4,5-dihydroxy-N,2-dimethylbenzamide] | −33.2116%
34 | CCN(C)C(=O)c1cc(OC)c(O)c(OC)c1 [N-ethyl-4-hydroxy-3,5-dimethoxy-N-methylbenzamide] | −34.6356%
35 | CCN(C)C(=O)c1ccc(O)c(OC)c1 [N-ethyl-4-hydroxy-3-methoxy-N-methylbenzamide] | −33.3917%
36 | CCN(C)C(=O)c1cc2c(cc1O)OCO2 [N-ethyl-6-hydroxy-N-methyl-2H-1,3-benzodioxole-5-carboxamide] | −3.424%
37 | CCN(C)C(=O)c1ccc2oc(C)nc2c1 [N-ethyl-N,2-dimethyl-1,3-benzoxazole-5-carboxamide] | −65.6678%
38 | CCN(C)C(=O)c1ccc2ocnc2c1 [N-ethyl-N-methyl-1,3-benzoxazole-5-carboxamide] | −74.9828%
39 | CCN(C)C(=O)c1ccc2nc(C(F)(F)C(F)(F)F)oc2c1 [N-ethyl-N-methyl-2-(1,1,2,2,2-pentafluoroethyl)-1,3-benzoxazole-6-carboxamide] | −28.449%
40 | CCN(C)C(=O)c1ccc2nc(C3CCCO3)oc2c1 (stereo not shown) [N-ethyl-N-methyl-2-(oxolan-2-yl)-1,3-benzoxazole-6-carboxamide] | 8.3538%
41 | CCN(C)C(=O)c1ccc2oc(=O)[nH]c2c1 [N-ethyl-N-methyl-2-oxo-2,3-dihydro-1,3-benzoxazole-5-carboxamide] | −21.7056%
42 | CCN(C)C(=O)c1ccc2nc(-c3ccccc3)oc2c1 [N-ethyl-N-methyl-2-phenyl-1,3-benzoxazole-6-carboxamide] | −76.883%
43 | CCN(C)C(=O)c1ccc2nc(S)oc2c1 [N-ethyl-N-methyl-2-sulfanyl-1,3-benzoxazole-6-carboxamide] | −6.201%
